Assay results taken from patent publication US5814628A, “Benzyl-substituted compounds having dopamine receptor affinity” (Allelix Biopharmaceuticals Inc., priority 1996, dated 1998).

Experiments:
[1] = target: T1, human D4 receptor (D4.2 sub-type) (Homo sapiens, UniProt P21917, DEL265-296); assay: D4 receptor-binding affinity (displacement of 3H-spiperone); details: 3H-spiperone 0.25 nM, HEK 298 cell membranes, Cheng and Prustoff transformation
T1 construct: expressed in transfected cells; host or cells: HEK 298 (human embryonic kidney); homogenate used
T1 sequence (P21917 with tags, fused parts or gaps DEL265-296): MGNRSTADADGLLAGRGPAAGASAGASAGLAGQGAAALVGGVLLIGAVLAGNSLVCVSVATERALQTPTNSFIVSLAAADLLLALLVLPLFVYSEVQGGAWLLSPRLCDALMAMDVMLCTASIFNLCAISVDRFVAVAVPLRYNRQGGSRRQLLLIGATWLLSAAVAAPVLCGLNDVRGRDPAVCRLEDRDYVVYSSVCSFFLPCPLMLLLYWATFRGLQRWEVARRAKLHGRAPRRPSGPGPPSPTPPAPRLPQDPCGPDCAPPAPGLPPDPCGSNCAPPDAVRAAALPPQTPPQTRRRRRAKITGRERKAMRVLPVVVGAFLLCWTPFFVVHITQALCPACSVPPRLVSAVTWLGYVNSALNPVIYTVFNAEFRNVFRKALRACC
Procedure: The potency of the test compound to reduce ^3 H-spiperone binding directly correlated to its binding affinity for the receptor.
The cells were then centrifuged in a Sorval centrifuge for 10 minutes, 5000 rpm (GS3 rotor) and the pellets quickly frozen in liquid nitrogen and stored at -80° C. until used in binding assay.
Concentration of receptor protein was determined using the Pierce BCA assay.
The tubes were vortexed and incubated at room temperature for 90 minutes. The binding reaction was stopped by filtering using a Brandell Cell Harvester. The samples were filtered under vacuum over glass fibre filters (Whatman GF/B) presoaked for 2 hours in 0.3% polyethylenimine (PEI) in 50 mM Tris buffer (pH7.4). The filters were then washed 3 times with 5 mL ice cold 50 mM Tris buffer (pH7.4). Individual filter disks were put in scintillation vials (Biovials, Bechman).
The tubes were vortexed and incubated at room temperature for 90 minutes at which time the binding reaction was stopped by filtering. The filters were washed and counted using the same procedure as in the total binding assay described above to give the non-specific binding value (NSB).
The incubation was started by the addition to 12×75 mm polypropylene tubes 500 μl (50 μg protein) membrane homogenate to a solution of 400 μl incubation buffer, 100 μl (0.25 final conc.) ^3 H-spiperone (90Ci/mmol, Amersham, diluted in borosilicate glass vial to) and […] of test compound that was prepared from 1 mM stock dissolved in DMSO and stored at -20° C. in polypropylene cryogenic storage vials until dilution in incubation buffer in borosilicate glass vials. The tubes were vortexed and incubated at room temperature for 90 minutes at which time the binding reaction was stopped by filtering. The filters were washed and counted using the same procedure as in the total binding assay described above to give the displacement binding value (BD).
IC50 was determined from an inhibition response curve, logit-log plot of %B/B0 vs concentration of test compound.
Ki was calculated by the Cheng and Prustoff transformation: […]
where [L] is the concentration of ^3 H-spiperone used in the assay and KD is the dissociation constant of ^3 H-spiperone determined independently under the same binding conditions.

[2] = tested on: human D2 receptor (short isoform) relative to human D4 receptor (D4.2 sub-type); assay: D4 selectivity: D2 versus D4 receptor binding (displacement of 3H-spiperone); details: D2/D4 ratio, D2 in GH4 C1 cells, D4 in HEK 298 cells
Procedure: The potency of the test compound to reduce ^3 H-spiperone binding directly correlated to its binding affinity for the receptor. […] When used in the assay, cells were thawed on ice for 20 minutes and then 10 mL of incubation buffer (50 mM Tris, 1 mM EDTA, 4 mM MgCI2, 5 mM KCI, 1.5 mM CaCI2, 120 mM NaCI, pH7.4) was added. […] Concentration of receptor protein was determined using the Pierce BCA assay. […] After 16 hours, fresh media was added to allow the cells to recover for 24 hours. The cells were harvested using versene and then centrifuged in a Sorval centrifuge for 10 minutes, at 5000 rpm (GS3 rotor). Pellets were quickly frozen in liquid nitrogen and stored at -80° C. until used in the binding assays. When used in the assay, cells were thawed on ice for 20 minutes. […] The receptor protein concentration was determined using the Pierce BCA assay. […] The tubes were vortexed and incubated at room temperature for 90 minutes. The binding reaction was stopped by filtering using a Brandell Cell Harvester. The samples were filtered under vacuum over glass fibre filters (Whatman GF/B) presoaked for 2 hours in 0.3% polyethylenimine (PEI) in 50 mM Tris buffer (pH7.4). The filters were then washed 3 times with 5 mL ice cold 50 mM Tris buffer (pH7.4). Individual filter disks were put in scintillation vials (Biovials, Bechman). […] The tubes were vortexed and incubated at room temperature for 90 minutes at which time the binding reaction was stopped by filtering. The filters were washed and counted using the same procedure as in the total binding assay described above to give the non-specific binding value (NSB). […] The tubes were vortexed and incubated at room temperature for 90 minutes at which time the binding reaction was stopped by filtering. The filters were washed and counted using the same procedure as in the total binding assay described above to give the displacement binding value (BD). […] IC50 was determined from an inhibition response curve, logit-log plot of %B/B0 vs concentration of test compound.

[3] = tested on: D4 receptor relative to the D2 receptor; details: marketed products, background section; cited from earlier work
[4] = target: D4 receptor; details: marketed products, background section; read-out: D4 affinity, Ki value; cited from earlier work

SMILES	Ki [1]	D2/D4 [2]	preference for binding the D4 receptor relative to the D2 receptor [3]	Ki [4]
Clc1ccc2c(c1)N=C(N1CCN(Cc3ccccc3)CC1)c1ccccc1O2 [8-Chloro-11-(4-benzyl-1-piperazinyl)-dibenz[b,f][1,4]oxazepine]	19 nM	31.7		
N#Cc1ccccc1CN1CCN(C2=Nc3ccccc3Oc3ccccc32)CC1 [11-[4-(2-cyanobenzyl)-1-piperazinyl]dibenz[b,f][1,4]oxazepine]	519 nM	16.1		
N#Cc1cccc(CN2CCN(C3=Nc4ccccc4Oc4ccccc43)CC2)c1 [11-[4-(3-cyanobenzyl)-1-piperazinyl]dibenz[b,f][1,4]oxazepine]	134 nM	21.7		
N#Cc1ccc(CN2CCN(C3=Nc4ccccc4Oc4ccccc43)CC2)cc1 [11-[4-(4-cyanobenzyl)-1-piperazinyl]dibenz[b,f][1,4]oxazepine]	108 nM	90.1		
CN1CCN(C2=Nc3cc(Cl)ccc3Oc3ccccc32)CC1 [isoloxapine]			about 10 fold	~20 nM
